In patent publication US8883827B2, “Azole derivatives as WTN pathway inhibitors” (Oslo University Hospital HF, priority 2009, dated 2014):
Where two headings read alike, the source gives them in different places.

How the values were obtained:
canonical Wnt signaling = assay: ST-Luc (SuperTOPFlash) Luciferase assay in HEK293 cells, 30% Wnt3a-CM; assay type: cell-based; conditions: Homo sapiens, 24 h
Summary of the method: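 HEK293 cells were transiently co-transfected with SuperTOPFlash firefly luciferase and pRL-TK Renilla reporters, then treated 24 h with 10 μM compound in 30% Wnt3a-conditioned medium. Dual luciferase activity was read, and percent activity was expressed relative to DMSO control.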

SW480 cells = assay: MTS cell growth assay (Example 27); assay type: cell-based; conditions: Homo sapiens, 72 h, read-out: IC50, reduction of proliferation
Procedure: Thus, the effect of compound No. 1 on cell growth was tested in SW480 cell lines using MTS analysis (MTS is the colorimetric substrate 3-(4,5-dimethylthiazol-2-yl)-5-(3-carboxymethoxyphenyl)-2-(4-sulfophenyl)-2H-tetrazolium).
3000 cells were seeded on 96 well plates in quadruplicates for each sample. The following day, cell culture medium was mixed with compound No. 1 in various concentrations or with 0.5% DMSO vehicle (control) and added to the wells.
Eight wells of seeded control cells, defining incubation time 0 (t0), were incubated with 20 μl substrate in 100 μl phenol-free D-MEM (Invitrogen) for 3 hours, as described in the CellTiter 96® AQueous Non-Radioactive Cell Proliferation Assay (MTS) protocol (Promega). The A490 value was recorded.
Samples were measured after 72 hours. The following formula was used to determine the single well relative A490 sample values: ((Sample A490−Average A490 to)×100)/(Average A490 0.5% DMSO control−Average A490 t0).

[1] = Compound concentration in plasma and tumors of xenograft mice; assay type: in vivo; conditions: C.B-Igh-1b/IcrTac-Prkdc scid (CB17/SCID), mouse, intraperitoneal, 24 h after last injection, day 29
Procedure: Daily injections (200 μl, i.p.) followed (two day injection intermissions after every fifth injection day) until experiment end (29 days). At the termination day, 24 hours after the last injection, blood was collected after cardiac puncture and the tumors were removed and weighed. The compound concentration in plasma and tumors was determined using an on-line and off-line Solid Phase Extraction-Capillary Liquid Chromatography (SPE-CapLC) instrumentation coupled to a Time of Flight (TOF) mass spectrometer, as previously described (Wilson, S. R. et al., J. Sep. Sci. 28: 1751-1758, 2005). A Zorbax SB C18 5 μm 150×0.3 mm column (Agilent, […], Calif., USA) was used for separation, and a Knauer K-2600 UV detector was used as a complimentary detector.

[2] = system: panel of phosphatases and kinases; assay: KinaseProfiler phosphatase and kinase panel (whole); assay type: biochemical; conditions: 10 μM compound
PP2A(h) = assay: Phosphatase screen; assay type: biochemical, human; conditions: 10 μM; 0.1% DMSO control = 100%
TMDP(h) = target: T1, TMDP(h) (Homo sapiens, UniProt Q9UII6); assay: Phosphatase screen; assay type: biochemical; conditions: 0.1% DMSO control = 100%
T1 construct: purchased Millipore (KinaseProfiler service)
T1 sequence (Q9UII6 whole entry): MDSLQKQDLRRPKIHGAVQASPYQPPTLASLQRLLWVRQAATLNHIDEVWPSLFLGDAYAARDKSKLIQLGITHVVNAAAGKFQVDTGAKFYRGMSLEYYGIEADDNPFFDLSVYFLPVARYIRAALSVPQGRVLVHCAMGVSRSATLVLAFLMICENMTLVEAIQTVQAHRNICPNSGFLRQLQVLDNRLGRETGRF

YopH(y) = conditions: 10 μM
ASK1(h) = target: T2, ASK1(h) (Homo sapiens, UniProt Q99683); assay: Kinase screen; assay type: biochemical; conditions: 0.1% DMSO control = 100%
T2 construct: purchased Millipore (KinaseProfiler service)

CDK2/cyclinA(h) = target: T3, CDK2/cyclinA(h) (Homo sapiens, UniProt P24941); assay: Kinase screen; assay type: biochemical; conditions: 0.1% DMSO control = 100%
T3 construct: purchased Millipore (KinaseProfiler service)

CK2α2(h) = target: T4, CK2α2(h) (Homo sapiens, UniProt P19784); assay: Kinase screen; assay type: biochemical; conditions: 0.1% DMSO control = 100%
T4 construct: purchased Millipore (KinaseProfiler service)

eEF-2K(h) = target: T5, eEF-2K(h) (Homo sapiens, UniProt O00418); assay: Kinase screen; assay type: biochemical; conditions: 0.1% DMSO control = 100%
T5 construct: purchased Millipore (KinaseProfiler service)

IRAK4(h) = target: T6, IRAK4(h) (Homo sapiens, UniProt Q9NWZ3); assay: Kinase screen; assay type: biochemical; conditions: 0.1% DMSO control = 100%
T6 construct: purchased Millipore (KinaseProfiler service)
T6 sequence (Q9NWZ3 whole entry): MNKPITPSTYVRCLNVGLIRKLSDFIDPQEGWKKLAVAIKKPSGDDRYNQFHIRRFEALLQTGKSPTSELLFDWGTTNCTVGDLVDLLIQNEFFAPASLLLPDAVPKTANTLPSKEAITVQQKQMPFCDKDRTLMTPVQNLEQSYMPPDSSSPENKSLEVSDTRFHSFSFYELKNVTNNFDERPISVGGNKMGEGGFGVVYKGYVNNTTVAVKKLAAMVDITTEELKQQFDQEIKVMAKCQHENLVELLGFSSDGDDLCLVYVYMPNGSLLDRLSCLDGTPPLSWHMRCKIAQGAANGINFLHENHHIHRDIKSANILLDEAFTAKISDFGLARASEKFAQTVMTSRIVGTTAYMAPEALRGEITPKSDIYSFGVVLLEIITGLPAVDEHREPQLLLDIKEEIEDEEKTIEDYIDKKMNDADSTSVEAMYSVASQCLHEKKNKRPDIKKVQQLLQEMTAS

MEK1(h) = target: T7, MEK1(h) (Homo sapiens, UniProt Q02750); assay: Kinase screen; assay type: biochemical; conditions: 0.1% DMSO control = 100%
T7 construct: purchased Millipore (KinaseProfiler service)
T7 sequence (Q02750 whole entry): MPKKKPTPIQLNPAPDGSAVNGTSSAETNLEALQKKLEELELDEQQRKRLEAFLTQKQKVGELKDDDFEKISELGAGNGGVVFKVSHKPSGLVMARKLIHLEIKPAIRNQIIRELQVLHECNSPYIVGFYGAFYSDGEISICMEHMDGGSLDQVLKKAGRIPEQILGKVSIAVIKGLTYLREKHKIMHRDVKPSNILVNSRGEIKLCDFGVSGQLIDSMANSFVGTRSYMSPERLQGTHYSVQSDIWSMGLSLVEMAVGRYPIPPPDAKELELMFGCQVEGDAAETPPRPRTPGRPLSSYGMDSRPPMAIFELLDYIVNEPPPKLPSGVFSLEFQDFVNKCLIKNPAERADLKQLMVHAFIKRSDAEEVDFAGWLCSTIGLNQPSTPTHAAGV

MKK7β(h) = target: T8, MKK7β(h) (Homo sapiens, UniProt O14733); assay: Kinase screen; assay type: biochemical; conditions: 0.1% DMSO control = 100%
T8 construct: purchased Millipore (KinaseProfiler service)

Mnk2(h) = target: T9, Mnk2(h) (Homo sapiens, UniProt Q9HBH9); assay: Kinase screen; assay type: biochemical; conditions: 0.1% DMSO control = 100%
T9 construct: purchased Millipore (KinaseProfiler service)

p70S6K(h) = target: T10, p70S6K(h) (Homo sapiens, UniProt P23443); assay: Kinase screen; assay type: biochemical; conditions: 0.1% DMSO control = 100%
T10 construct: purchased Millipore (KinaseProfiler service)
T10 sequence (P23443 whole entry): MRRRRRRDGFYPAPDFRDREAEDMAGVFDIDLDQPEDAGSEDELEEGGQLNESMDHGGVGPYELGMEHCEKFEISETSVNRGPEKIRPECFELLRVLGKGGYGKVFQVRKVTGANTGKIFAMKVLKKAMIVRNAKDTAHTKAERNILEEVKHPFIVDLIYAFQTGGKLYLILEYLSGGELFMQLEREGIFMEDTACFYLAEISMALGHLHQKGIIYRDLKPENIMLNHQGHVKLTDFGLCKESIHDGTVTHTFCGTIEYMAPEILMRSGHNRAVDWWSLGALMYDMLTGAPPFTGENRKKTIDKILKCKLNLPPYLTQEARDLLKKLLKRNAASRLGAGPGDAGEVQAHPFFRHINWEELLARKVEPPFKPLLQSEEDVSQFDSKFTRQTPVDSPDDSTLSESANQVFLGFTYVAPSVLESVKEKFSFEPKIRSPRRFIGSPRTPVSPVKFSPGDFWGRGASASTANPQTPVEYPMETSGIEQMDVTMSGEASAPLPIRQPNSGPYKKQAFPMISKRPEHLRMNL

[3] = target: T11, PI3 Kinase (p110b/p85a)(h) (Homo sapiens, UniProt P42338); assay: Kinase screen; assay type: biochemical; conditions: 0.1% DMSO control = 100%
T11 construct: purchased Millipore (KinaseProfiler service)
T11 sequence (P42338 whole entry): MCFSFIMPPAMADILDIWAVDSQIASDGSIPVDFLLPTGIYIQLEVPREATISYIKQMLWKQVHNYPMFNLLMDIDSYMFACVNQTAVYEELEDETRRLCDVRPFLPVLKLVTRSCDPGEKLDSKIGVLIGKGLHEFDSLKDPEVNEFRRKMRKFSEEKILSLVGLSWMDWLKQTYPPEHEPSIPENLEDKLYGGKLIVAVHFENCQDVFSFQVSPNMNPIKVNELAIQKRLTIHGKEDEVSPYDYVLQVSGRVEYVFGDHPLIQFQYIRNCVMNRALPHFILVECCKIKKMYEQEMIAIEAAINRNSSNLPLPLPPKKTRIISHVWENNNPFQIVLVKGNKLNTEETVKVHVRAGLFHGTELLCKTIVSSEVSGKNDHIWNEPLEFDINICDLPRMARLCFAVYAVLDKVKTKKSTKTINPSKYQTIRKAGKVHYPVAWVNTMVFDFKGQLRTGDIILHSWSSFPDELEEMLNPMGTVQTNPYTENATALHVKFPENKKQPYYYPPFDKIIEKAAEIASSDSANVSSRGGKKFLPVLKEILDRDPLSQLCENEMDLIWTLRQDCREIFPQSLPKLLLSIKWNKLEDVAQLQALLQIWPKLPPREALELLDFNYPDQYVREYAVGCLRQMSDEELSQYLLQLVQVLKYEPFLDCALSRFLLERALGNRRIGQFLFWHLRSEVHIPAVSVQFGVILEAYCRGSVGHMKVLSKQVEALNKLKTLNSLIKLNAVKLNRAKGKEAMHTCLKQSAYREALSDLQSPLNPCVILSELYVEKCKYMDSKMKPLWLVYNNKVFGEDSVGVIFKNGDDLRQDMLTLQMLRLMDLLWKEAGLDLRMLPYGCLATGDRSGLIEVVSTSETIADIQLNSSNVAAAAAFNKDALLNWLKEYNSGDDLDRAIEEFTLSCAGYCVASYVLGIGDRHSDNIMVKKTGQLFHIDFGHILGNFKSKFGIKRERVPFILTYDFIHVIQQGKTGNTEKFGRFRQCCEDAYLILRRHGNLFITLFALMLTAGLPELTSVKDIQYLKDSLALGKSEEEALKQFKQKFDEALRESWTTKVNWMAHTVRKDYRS
T11 sequence (P27986 whole entry partner): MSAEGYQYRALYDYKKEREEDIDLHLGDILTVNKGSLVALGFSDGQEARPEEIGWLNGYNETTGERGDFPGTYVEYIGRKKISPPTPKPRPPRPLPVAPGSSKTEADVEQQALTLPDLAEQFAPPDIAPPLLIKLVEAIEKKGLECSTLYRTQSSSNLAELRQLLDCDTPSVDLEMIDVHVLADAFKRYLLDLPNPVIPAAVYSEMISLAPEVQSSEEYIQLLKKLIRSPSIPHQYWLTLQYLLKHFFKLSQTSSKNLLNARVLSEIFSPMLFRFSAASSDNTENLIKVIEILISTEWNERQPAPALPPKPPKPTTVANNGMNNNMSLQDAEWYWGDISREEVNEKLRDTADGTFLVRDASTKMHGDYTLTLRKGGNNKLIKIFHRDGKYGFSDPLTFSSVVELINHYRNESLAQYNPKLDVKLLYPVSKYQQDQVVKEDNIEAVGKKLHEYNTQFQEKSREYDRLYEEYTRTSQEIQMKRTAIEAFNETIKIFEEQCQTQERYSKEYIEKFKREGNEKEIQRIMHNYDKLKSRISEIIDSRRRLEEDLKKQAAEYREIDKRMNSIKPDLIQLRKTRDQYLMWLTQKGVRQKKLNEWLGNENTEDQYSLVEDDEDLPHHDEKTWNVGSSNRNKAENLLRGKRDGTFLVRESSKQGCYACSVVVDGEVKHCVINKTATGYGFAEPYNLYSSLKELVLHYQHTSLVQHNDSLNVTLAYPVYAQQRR

PKG1α(h) = target: T12, PKG1α(h) (Homo sapiens, UniProt Q13976); assay: Kinase screen; assay type: biochemical; conditions: 0.1% DMSO control = 100%
T12 construct: purchased Millipore (KinaseProfiler service)
T12 sequence (Q13976 whole entry): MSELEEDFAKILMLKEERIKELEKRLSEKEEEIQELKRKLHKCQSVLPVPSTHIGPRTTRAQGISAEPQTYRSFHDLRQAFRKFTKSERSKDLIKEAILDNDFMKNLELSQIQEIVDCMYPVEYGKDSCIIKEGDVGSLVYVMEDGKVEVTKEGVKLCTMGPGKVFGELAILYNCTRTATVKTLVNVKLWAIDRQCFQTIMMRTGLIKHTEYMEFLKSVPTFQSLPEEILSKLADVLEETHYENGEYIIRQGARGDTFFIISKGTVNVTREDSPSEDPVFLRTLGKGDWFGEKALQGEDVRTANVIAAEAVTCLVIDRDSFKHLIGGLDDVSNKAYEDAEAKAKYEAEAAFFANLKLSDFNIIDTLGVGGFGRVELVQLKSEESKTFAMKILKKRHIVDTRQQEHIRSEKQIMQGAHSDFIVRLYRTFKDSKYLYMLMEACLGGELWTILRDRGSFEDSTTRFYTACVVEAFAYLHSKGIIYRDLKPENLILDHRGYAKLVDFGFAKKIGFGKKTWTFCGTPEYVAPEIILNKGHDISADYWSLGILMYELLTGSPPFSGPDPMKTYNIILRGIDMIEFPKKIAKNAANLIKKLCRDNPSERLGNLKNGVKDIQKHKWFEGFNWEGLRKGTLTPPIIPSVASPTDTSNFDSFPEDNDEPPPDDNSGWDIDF

SRPK1(h) = target: T13, SRPK1(h) (Homo sapiens, UniProt Q96SB4); assay: Kinase screen; assay type: biochemical; conditions: 0.1% DMSO control = 100%
T13 construct: purchased Millipore (KinaseProfiler Service)
T13 sequence (Q96SB4 whole entry): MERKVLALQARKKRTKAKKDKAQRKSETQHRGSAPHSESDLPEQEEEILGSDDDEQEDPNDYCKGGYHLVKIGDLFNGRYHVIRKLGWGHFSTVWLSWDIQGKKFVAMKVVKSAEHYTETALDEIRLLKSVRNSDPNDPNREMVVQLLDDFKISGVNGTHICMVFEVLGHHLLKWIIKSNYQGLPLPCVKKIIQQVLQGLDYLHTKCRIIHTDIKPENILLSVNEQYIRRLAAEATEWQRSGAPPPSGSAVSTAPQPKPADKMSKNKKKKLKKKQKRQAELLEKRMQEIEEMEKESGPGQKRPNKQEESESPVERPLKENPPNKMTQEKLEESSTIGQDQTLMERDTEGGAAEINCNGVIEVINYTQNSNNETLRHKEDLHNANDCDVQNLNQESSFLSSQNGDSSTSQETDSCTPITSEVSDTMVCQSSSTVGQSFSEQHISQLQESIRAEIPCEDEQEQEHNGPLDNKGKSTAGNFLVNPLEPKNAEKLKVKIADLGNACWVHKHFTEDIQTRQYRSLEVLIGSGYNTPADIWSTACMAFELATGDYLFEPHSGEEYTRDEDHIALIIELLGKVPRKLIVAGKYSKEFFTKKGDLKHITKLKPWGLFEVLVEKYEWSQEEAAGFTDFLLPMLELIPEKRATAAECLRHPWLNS

SMILES: COc1ccc(-n2c(SCc3nc(-c4ccc(C)cc4)no3)nnc2-c2ccncc2)cc1 [Compound 1]
- activity at 10 µM (canonical Wnt signaling; HEK293, 10 μM compound, 30% Wnt3a-CM, relative to DMSO control): 15.4%
- IC50 (canonical Wnt signaling; HEK293, 30% Wnt3a-CM, 0.1-10 μM, read-out: IC50, reduction of canonical Wnt signaling by the ST-Luc assay): 1 µM
- IC50 (SW480 cells): ~11.5 µM
- concentration at 24 h after the last injection ([1]; plasma, 150 mg/kg, 150 mg/kg group, read-out: concentration in plasma): 1300 ng/mL
- concentration at 24 h after the last injection ([1]; plasma, 300 mg/kg, 300 mg/kg group, read-out: concentration in plasma): 1300 ng/mL
- concentration at 24 h after the last injection ([1]; tumor, 150 mg/kg, 150 mg/kg cohort, read-out: concentration in tumors, mean): 11800 ng/g
- concentration at 24 h after the last injection ([1]; tumor, 150 mg/kg, 150 mg/kg cohort, read-out: concentration in tumors, range): 1900 to 32900 ng/g
- concentration at 24 h after the last injection ([1]; tumor, 300 mg/kg, 300 mg/kg cohort, read-out: concentration in tumors, mean): 2400 ng/g
- concentration at 24 h after the last injection ([1]; tumor, 300 mg/kg, 300 mg/kg cohort, read-out: concentration in tumors, range): 900 to 4900 ng/g
- inhibition of kinase or phosphatase activity [2]: No extensive inhibition
- Activity (%) (PP2A(h)): 87%
- activity at 10 µM (TMDP(h)): 97%
- Activity (%) (YopH(y)): 94%
- activity at 10 µM (ASK1(h)): 106%
- activity at 10 µM (CDK2/cyclinA(h)): 106%
- activity at 10 µM (CK2α2(h)): 104%
- activity at 10 µM (eEF-2K(h)): 117%
- activity at 10 µM (IRAK4(h)): 98%
- activity at 10 µM (MEK1(h)): 108%
- activity at 10 µM (MKK7β(h)): 90%
- activity at 10 µM (Mnk2(h)): 108%
- activity at 10 µM (p70S6K(h)): 113%
- activity at 10 µM [3]: 94%
- activity at 10 µM (PKG1α(h)): 106%
- activity at 10 µM (SRPK1(h)): 96%
